Common to all, as to assay type: in vivo
One experiment relates to Colletotricum lagenarium. Kind of experiment: Cucumber Anthracnose (COLLLA) whole-plant disease control test. The settings on record: Cucumis sativus, foliar, read-out: COLLLA disease control.
Experiment [1] concerns Puccinia recondita tritici. Kind of experiment: Leaf Rust of Wheat (PUCCRT) whole-plant disease control test. The settings on record: Puccinia recondita, foliar, read-out: PUCCRT disease control.
For another experiment, the system named is Leptosphaeria nodorum. Kind of experiment: Glume Blotch of Wheat (LEPTNO) whole-plant disease control test. To be noted: Parastagonospora nodorum, foliar, read-out: LEPTNO disease control.
The test system of another experiment is Erysiphe cichoracaerum. Description: Cucumber Powdery Mildew (ERYSCI) whole-plant disease control test. To be noted: Erysiphe, foliar, read-out: ERYSCI disease control.
Experiment [2] deals with Mycosphaerella graminicola=Septoria tritici. Description: Speckled Leaf Blotch of Wheat (SEPTTR) whole-plant disease control test. To be noted: Mycosphaerella, foliar, read-out: SEPTTR disease control.
A further experiment concerns Phytophthora infestans. Kind of experiment: whole plant or invertebrate. The settings on record: Phytophthora infestans, in Solanum lycopersicum, foliar, read-out: PHYTIN disease control, 200 ppm applied to foliage of tomato; inoculated one day after treatment.
For experiment [3], the system named is Magnaporthe grisea=Pyricularia oryzae. Kind of experiment: whole plant or invertebrate. To be noted: Pyricularia oryzae, foliar, read-out: PYRIOR disease control, 200 ppm applied to foliage of rice; inoculated one day after treatment.
[4] abbreviates: 200 ppm applied to foliage of cucumber, inoculated one day after treatment.
Where [5] appears, read: 200 ppm applied to foliage of wheat, inoculated one day after treatment.
[6] abbreviates: 75 ppm applied to foliage of wheat.

Where two headings read alike, the source gives them in different places.

`Clc1csc2ncnc(NCCc3ccc(Oc4cccc(C(Cl)(Cl)Cl)n4)cc3)c12` [Compound 77]: the pest or weed control at 200 ppm was in the range of 0 to 49% in the experiment on Colletotricum lagenarium (setting [4]); 80 to 100% in experiment [1] (setting [5]); 80 to 100% in the experiment on Leptosphaeria nodorum (setting [5]); 0 to 49% with Erysiphe cichoracaerum (setting [4]); 0 to 49% with Phytophthora infestans; 80 to 100% in experiment [3]. The pest or weed control at 75 ppm in experiment [2] (setting [6]) was in the range of 0 to 49%.

With `FC(F)(F)c1ncccc1Oc1ccc(CCNc2ncnc3scc(Cl)c23)cc1` [Compound 78], the pest or weed control at 200 ppm in the experiment with Colletotricum lagenarium (setting [4]) was in the range of 50 to 79%; in experiment [1] (setting [5]) it was 80 to 100%; in the experiment on Leptosphaeria nodorum (setting [5]), 80 to 100%; in the experiment on Erysiphe cichoracaerum (setting [4]), 80 to 100%; in the experiment on Phytophthora infestans, 50 to 79%; in experiment [3], 80 to 100%. Further, the pest or weed control at 75 ppm in experiment [2] (setting [6]) lay in the range of 50 to 79%.

In the case of `COC(=O)c1cccc(Oc2ccc(CCNc3ncnc4scc(Cl)c34)cc2)n1` [Compound 79], the pest or weed control at 200 ppm in the experiment on Colletotricum lagenarium (setting [4]) lay in the range of 0 to 49%; in experiment [1] (setting [5]), 80 to 100%; in the experiment with Leptosphaeria nodorum (setting [5]) it was 0 to 49%; in the experiment with Erysiphe cichoracaerum (setting [4]), 0 to 49%; in the experiment with Phytophthora infestans, 80 to 100%; in experiment [3] it was 80 to 100%. Further, in experiment [2] (setting [6]), the pest or weed control at 75 ppm lay within 0 to 49%.

`CCOC(=O)c1cccc(Oc2ccc(CCNc3ncnc4scc(Cl)c34)cc2)n1` [Compound 80]: the pest or weed control at 200 ppm in the experiment on Colletotricum lagenarium (setting [4]) was 0 to 49%; in experiment [1] (setting [5]), 80 to 100%; with Leptosphaeria nodorum (setting [5]), 0 to 49%; with Erysiphe cichoracaerum (setting [4]), 0 to 49%; in the experiment with Phytophthora infestans it was 80 to 100%; in experiment [3] it was 80 to 100%. Besides, the pest or weed control at 75 ppm in experiment [2] (setting [6]) lay within 0 to 49%.

Turning to `COc1cc(C#N)cc(Oc2ccc(CCNc3ncnc4scc(Cl)c34)cc2)n1` [Compound 81], the pest or weed control at 200 ppm with Colletotricum lagenarium (setting [4]) was 50 to 79%; in experiment [1] (setting [5]), 80 to 100%; in the experiment with Leptosphaeria nodorum (setting [5]), 80 to 100%; in the experiment on Erysiphe cichoracaerum (setting [4]) it was 50 to 79%; in the experiment with Phytophthora infestans it was 0 to 49%; in experiment [3], 80 to 100%. Further, the pest or weed control at 75 ppm in experiment [2] (setting [6]) fell in the range of 50 to 79%.

`Cc1cccc(Oc2ccc(CCNc3ncnc4scc(Cl)c34)cc2)n1` [Compound 85]: the pest or weed control at 200 ppm in the experiment with Colletotricum lagenarium (setting [4]) was in the range of 50 to 79%; in experiment [1] (setting [5]), 80 to 100%; in the experiment with Leptosphaeria nodorum (setting [5]) it was 80 to 100%; in the experiment on Erysiphe cichoracaerum (setting [4]), 80 to 100%; in the experiment on Phytophthora infestans it was 80 to 100%; in experiment [3], 80 to 100%. In addition, the pest or weed control at 75 ppm in experiment [2] (setting [6]) is 80 to 100%.

In the case of `Clc1csc2ncnc(NCCc3ccc(Oc4ncnc5scnc45)cc3)c12` [Compound 86], the pest or weed control at 200 ppm was in the range of 0 to 49% with Colletotricum lagenarium (setting [4]); 80 to 100% in experiment [1] (setting [5]); 50 to 79% with Leptosphaeria nodorum (setting [5]); 50 to 79% in the experiment with Erysiphe cichoracaerum (setting [4]); 80 to 100% in the experiment with Phytophthora infestans; 50 to 79% in experiment [3]. In addition, the pest or weed control at 75 ppm in experiment [2] (setting [6]) was in the range of 80 to 100%.

On to `COc1cc(Oc2ccc(CCNc3ncnc4scc(Cl)c34)cc2)c(Br)cn1` [Compound 87], for which the pest or weed control at 200 ppm with Colletotricum lagenarium (setting [4]) lay in the range of 0 to 49%; in experiment [1] (setting [5]), 80 to 100%; in the experiment on Leptosphaeria nodorum (setting [5]) it was 50 to 79%; with Erysiphe cichoracaerum (setting [4]), 80 to 100%; in the experiment with Phytophthora infestans, 50 to 79%; in experiment [3], 80 to 100%. For the same compound, the pest or weed control at 75 ppm in experiment [2] (setting [6]) lay within 50 to 79%.

For the compound `COc1cc(C(F)(F)F)cc(Oc2ccc(CC(C)Nc3ncnc4scc(Cl)c34)cc2)n1` (centres unmarked) [Compound 88], the pest or weed control at 200 ppm in the experiment with Colletotricum lagenarium (setting [4]) lay within 50 to 79%; in experiment [1] (setting [5]) it was 80 to 100%; in the experiment on Leptosphaeria nodorum (setting [5]) it was 0 to 49%; with Erysiphe cichoracaerum (setting [4]) it was 80 to 100%; in the experiment with Phytophthora infestans, 0 to 49%; in experiment [3] it was 80 to 100%. In addition, the pest or weed control at 75 ppm in experiment [2] (setting [6]) is 50 to 79%.

On to `Clc1csc2ncnc(NCCc3ccc(Oc4cccc(-n5cccn5)n4)cc3)c12` [Compound 89], for which the pest or weed control at 200 ppm lay within 0 to 49% in the experiment with Colletotricum lagenarium (setting [4]); 80 to 100% in experiment [1] (setting [5]); 80 to 100% in the experiment on Leptosphaeria nodorum (setting [5]); 80 to 100% with Erysiphe cichoracaerum (setting [4]); 0 to 49% in the experiment with Phytophthora infestans; 80 to 100% in experiment [3]. For the same compound, in experiment [2] (setting [6]), the pest or weed control at 75 ppm was in the range of 50 to 79%.

On to `CS(=O)(=O)c1cccc(Oc2ccc(CCNc3ncnc4scc(Cl)c34)cc2)n1` [Compound 91], for which the pest or weed control at 200 ppm with Colletotricum lagenarium (setting [4]) lay in the range of 0 to 49%; in experiment [1] (setting [5]) it was 80 to 100%; in the experiment with Leptosphaeria nodorum (setting [5]), 80 to 100%; in the experiment with Erysiphe cichoracaerum (setting [4]) it was 50 to 79%; with Phytophthora infestans, 80 to 100%; in experiment [3], 80 to 100%. Further, in experiment [2] (setting [6]), the pest or weed control at 75 ppm is 0 to 49%.

In the case of `CC(Cc1ccc(Oc2c(Cl)cnc(C(F)(F)F)c2Cl)cc1)Nc1ncnc2scc(Cl)c12` (centres unmarked) [Compound 94], the pest or weed control at 200 ppm fell in the range of 50 to 79% with Colletotricum lagenarium (setting [4]); 80 to 100% in experiment [1] (setting [5]); 0 to 49% with Leptosphaeria nodorum (setting [5]); 50 to 79% in the experiment with Erysiphe cichoracaerum (setting [4]); 0 to 49% in the experiment on Phytophthora infestans; 80 to 100% in experiment [3]. Besides, the pest or weed control at 75 ppm in experiment [2] (setting [6]) was in the range of 0 to 49%.

As to `CS(=O)(=O)c1cc(Oc2ccc(CCNc3ncnc4scc(Cl)c34)cc2)ccn1` [Compound 95], the pest or weed control at 200 ppm fell in the range of 50 to 79% with Colletotricum lagenarium (setting [4]); 80 to 100% in experiment [1] (setting [5]); 80 to 100% in the experiment on Leptosphaeria nodorum (setting [5]); 0 to 49% in the experiment with Erysiphe cichoracaerum (setting [4]); 80 to 100% with Phytophthora infestans; 80 to 100% in experiment [3]. Also, the pest or weed control at 75 ppm in experiment [2] (setting [6]) fell in the range of 50 to 79%.

For `N#CCc1cccc(Oc2ccc(CCNc3ncnc4scc(Cl)c34)cc2)n1` [Compound 97], the pest or weed control at 200 ppm with Colletotricum lagenarium lay within 50 to 79%; in experiment [1] it was 80 to 100%; in the experiment on Leptosphaeria nodorum, 80 to 100%; in the experiment with Erysiphe cichoracaerum, 0 to 49%; in the experiment with Phytophthora infestans, 80 to 100%; in experiment [3], 80 to 100%. Moreover, in experiment [2], the pest or weed control at 75 ppm lay in the range of 50 to 79%.

As for `O=C(Nc1ccc(CCNc2ncnc3scc(Cl)c23)cc1)c1ccnc(Cl)c1` [Compound 99, 2-Chloro-N-{4-[2-(5-chlorothieno[2,3,-d]pyrimidin-4-ylamino)ethyl]phenyl}isonicotinamide], the pest or weed control at 200 ppm in the experiment with Colletotricum lagenarium (setting [4]) was 50 to 79%; in experiment [1] (setting [5]) it was 80 to 100%; in the experiment with Leptosphaeria nodorum (setting [5]), 0 to 49%; in the experiment with Erysiphe cichoracaerum (setting [4]) it was 0 to 49%; with Phytophthora infestans, 50 to 79%; in experiment [3], 80 to 100%. Also, in experiment [2] (setting [6]), the pest or weed control at 75 ppm is 0 to 49%.

As to `N#Cc1nc(F)c(F)c(Oc2ccc(CCNc3ncnc4scc(Cl)c34)cc2)c1F` [Compound 103], the pest or weed control at 200 ppm in the experiment on Colletotricum lagenarium (setting [4]) was in the range of 50 to 79%; in experiment [1] (setting [5]), 50 to 79%; in the experiment on Leptosphaeria nodorum (setting [5]), 50 to 79%; in the experiment with Erysiphe cichoracaerum (setting [4]), 0 to 49%; in the experiment with Phytophthora infestans, 0 to 49%; in experiment [3] it was 50 to 79%. For the same compound, in experiment [2] (setting [6]), the pest or weed control at 75 ppm was 0 to 49%.

Consider `Clc1ccc(COc2ccc(CCNc3ncnc4scc(Cl)c34)cc2)cn1` [Compound 104], for which the pest or weed control at 200 ppm lay in the range of 50 to 79% in the experiment on Colletotricum lagenarium (setting [4]); 80 to 100% in experiment [1] (setting [5]); 0 to 49% in the experiment on Leptosphaeria nodorum (setting [5]); 0 to 49% in the experiment on Erysiphe cichoracaerum (setting [4]); 0 to 49% in the experiment on Phytophthora infestans; 80 to 100% in experiment [3]. Moreover, the pest or weed control at 75 ppm in experiment [2] (setting [6]) is 50 to 79%.

`FC(F)(F)c1ccc(COc2ccc(CCNc3ncnc4scc(Cl)c34)cc2)o1` [Compound 105]: the pest or weed control at 200 ppm in the experiment with Colletotricum lagenarium (setting [4]) was in the range of 0 to 49%; in experiment [1] (setting [5]), 50 to 79%; in the experiment on Leptosphaeria nodorum (setting [5]) it was 0 to 49%; in the experiment on Erysiphe cichoracaerum (setting [4]) it was 0 to 49%; in the experiment with Phytophthora infestans, 0 to 49%; in experiment [3] it was 80 to 100%. Moreover, the pest or weed control at 75 ppm in experiment [2] (setting [6]) was in the range of 0 to 49%.

Regarding `CC(C)OC(=O)c1cnc(Oc2ccc(CCNc3ncnc4scc(Cl)c34)cc2)c(Cl)c1` [Compound 106], the pest or weed control at 200 ppm in the experiment on Colletotricum lagenarium (setting [4]) was in the range of 0 to 49%; in experiment [1] (setting [5]), 80 to 100%; with Leptosphaeria nodorum (setting [5]), 0 to 49%; in the experiment with Erysiphe cichoracaerum (setting [4]), 0 to 49%; with Phytophthora infestans it was 0 to 49%; in experiment [3], 80 to 100%. In experiment [2] (setting [6]), the pest or weed control at 75 ppm was 50 to 79%.

As to `CC(C)c1cncnc1COc1ccc(CCNc2ncnc3scc(Cl)c23)cc1` [Compound 107], the pest or weed control at 200 ppm in the experiment with Colletotricum lagenarium (setting [4]) lay within 0 to 49%; in experiment [1] (setting [5]) it was 80 to 100%; with Leptosphaeria nodorum (setting [5]), 0 to 49%; in the experiment on Erysiphe cichoracaerum (setting [4]), 0 to 49%; with Phytophthora infestans, 80 to 100%; in experiment [3], 80 to 100%. For the same compound, the pest or weed control at 75 ppm in experiment [2] (setting [6]) is 50 to 79%.

The values above are taken from patent US7531482B2, “Thieno-pyrimidine compounds having fungicidal activity” (Dow AgroSciences LLC, priority 2005, dated 2009).
